Laboratory results: patent publication US20250382619A1, “CANCER THERAPY WITH TGF-BETA-2 AND IRINOTECAN AGENTS” (GMP BIOTECHNOLOGY LIMITED, priority 2023, published 2025)
Several values for one entry are separate records, joined by “and”; a condition that tells them apart may be missing. Equal entries are not always repeated. In the oligonucleotide strings, read from the 5' end, every base follows the letter of its sugar. An asterisk marks phosphorothioate; unmarked linkages are phosphodiester. Other units and linkages are bracketed, terminal groups are in braces. A string of capitals states the bases alone. d = 2'-deoxy (DNA)

Key:
pancreatic cancer [1] = assay: Clinical study of overall survival, pancreatic cancer patients treated with irinotecan, by TGF-β2 expression (Example 5, two cohorts); format: in vivo, human; conditions: for Synergy in combination with reduced TGF-β2 expression: overall survival, pancreatic cancer patients; for Improvement in overall survival (OS) with reduced TGF-β2 expression in patients treated with the agent: pancreatic cancer patients selected by treatment; for Median Months Overall (95% CI): irinotecan-treated patients
Excerpt: The study of FIG. 5 used Quartiles of TGFB2 from mRNA expression z-scores relative to all samples (log RNA Seq V2 RSEM).

pancreatic cancer [2] = assay: Clinical study of overall survival, pancreatic cancer patients treated with irinotecan, by TGF-β2 expression quartiles (Example 6); format: in vivo, human; conditions: TGFB2 quartile (D) 0.61-2.64, high TGF-β2 expression
Protocol: Kaplan-Meier Plotter was used to calculate patient survival to determine the connection between improved overall survival in pancreatic cancer and reduced TGF-β2 expression when patients were also treated with irinotecan. The study of FIG. 6 used Quartiles of TGFB2 from mRNA expression z-scores relative to all samples (log RNA Seq V2 RSEM).

| Molecule | Synergy in combination with reduced TGF-β2 expression (pancreatic cancer [1]) | Improvement in overall survival (OS) with reduced TGF-β2 expression in patients treated with the agent (pancreatic cancer [1]) | further results |
| --- | --- | --- | --- |
| O=c1[nH]cc(F)c(=O)[nH]1 [fluorouracil] | none of oxaliplatin, leucovorin, and fluorouracil showed significant synergy | not observed | – |
| Nc1ccn([C@@H]2O[C@H](CO)[C@@H](O)C2(F)F)c(=O)n1 [gemcitabine] | – | not observed | – |
| CCc1c2c(nc3ccc(OC(=O)N4CCC(N5CCCCC5)CC4)cc13)-c1cc3c(c(=O)n1C2)COC(=O)[C@]3(O)CC [irinotecan] | – | showed improvement in overall survival | Median Months Overall (95% CI) (pancreatic cancer [2]): 8 months and 8.22 (6.02-NA) months; Median Months Overall (95% CI) (pancreatic cancer [1]; TGFB2 cohort (A) −1.75-0.17, low TGF-β2 expression): >>34 months; Median Months Overall (95% CI) (pancreatic cancer [1]; TGFB2 cohort (B) 0.33-2.64, high TGF-β2 expression): 23 months and 23.08 (8.22-NA) months |
| Nc1nc2c(c(=O)[nH]1)N(C=O)C(CNc1ccc(C(=O)N[C@@H](CCC(=O)O)C(=O)O)cc1)CN2 (some centres unmarked) [leucovorin] | none of oxaliplatin, leucovorin, and fluorouracil showed significant synergy | not observed | – |
| O=C1[O][Pt]2([NH][C@@H]3CCCC[C@H]3[NH]2)[O]C1=O [oxaliplatin] | – | not observed | – |
| Trabedersen: synthetic 18-mer phosphorothioate oligodeoxynucleotide complementary to human TGF-β2 mRNA, CGGCATGTCT ATTTTGTA (antisense dC*dG*dG*dC*dA*dT*dG*dT*dC*dT*dA*dT*dT*dT*dT*dG*dT*dA) | – | – | pH of solution: 6-8 |
